Tests used:
Format in all cases: cell-based
ISRE = test: Measurement of ISRE activity in ISRE-bla THP-1 cells (FRET, IFN-α as primary stimulus); settings: compound 5 μM + IFN-α 100 U/mL, 16 hours, two point normalized: compound 1 + IFN-α = 200%, IFN-α = 100%, mean; for activity at 5 µM: Homo sapiens, THP-1, read-out: ISRE % Activation
Description: (§1) ISRE-bla THP-1 cells were plated in 96-well plates at 5×10^4 cells/well in 50 μl RPMI supplemented with 10% dialyzed FBS (Atlanta Biologicals, Inc., GA), 0.1 mM nonessential amino acids, 1 mM sodium pyruvate, 100 U/mL penicillin and 100 μg/ml streptomycin. Type I IFN-α (R&D Systems, #11200-2) solution was prepared in assay medium at a concentration of 200 U/mL Tested compounds were dissolved in DMSO at 1 mM and were further diluted in the IFN-α solution to a final concentration of 10 μM. 50 μL of this solution was then transferred to the plated cells to obtain a final concentration of IFN-α at 100 U/mL and compound at 5 μM ([…]), The cells were incubated for 16 hours, after which 20 μL of 6×LiveBLAzer™ FRET B/G Substrate (CCF4-AM) mixture (prepared according to the manufacturer's instructions) was added to each well, Plates were incubated at room temperature in the dark for 3 hours. Fluorescence was measured on a Tecan Infinite M200 plate reader at an excitation wavelength of 405 nm, and emission wavelengths of 465 nm and 535 nm. Background values (cell free wells at the same fluorescence wavelength) were subtracted from the raw fluorescence intensity values and the emission ratios were calculated as the ratio of background subtracted fluorescence intensities at 465 nm to background subtracted fluorescence intensities at 535 nm. The ISRE activity values for these compounds were 2-point normalized to yield activity of compound 1+IFN-α as 200% and activity for IFN-α as 100%.
Measurement of ISRE Activity in ISRE-bla THP-1 Cells. ISREbla THP-1 cells were plated in 96-well plates at 5×10^4 cells/well in 50 μL of RPMI supplemented with 10% dialyzed FBS (Atlanta Biologicals, Inc., GA), 0.1 mM nonessential amino acids, 1 mM sodium pyruvate, 100 U/mL penicillin, and 100 μg/mL streptomycin. Type I IFN-α (R&D Systems, no. 11200-2) solution was prepared in assay medium at a concentration of 200 U/mL. Tested compounds were dissolved in DMSO at 1 mM and were further diluted in the IFN-α solution to a final concentration of 10 μM. 50 μL of this solution was then transferred to the plated cells to obtain a final concentration of IFN-α at 100 U/mL and compound at 5 μM ([…]). The cells were incubated for 16 hours, after which 20 μL of 6×LiveBLAzer FRET B/G substrate (CCF4-AM) mixture (prepared according to the manufacturer's instructions) was added to each well. Plates were incubated at room temperature in the dark for 3 hours. Fluorescence was measured on a Tecan Infinite M200 plate reader at an excitation wavelength of 405 nm and emission wavelengths of 465 and 535 nm. Background values (cell free wells at the same fluorescence wavelength) were subtracted from the raw fluorescence intensity values and the emission ratios were calculated as the ratio of background subtracted fluorescence intensities at 465 nm to background subtracted fluorescence intensities at 535 nm. The ISRE activity values for these compounds were two-point normalized to yield activity of compound 1+IFN-α as 200% and activity for IFN-α as 100%.

NF-κB = test: Measurement of NF-κB activation using THP1-Blue NF-κB cells (SEAP reporter, LPS as primary stimulus); settings: compound 5 μM + LPS, 20 hour incubation; two point normalized: compound 1 + LPS = 200%, LPS = 100%; mean
Description: (§2) THP1-Blue™ NF-κB cells were plated in 96-well plates at 10^5 cells/well in 100 μl RPMI supplemented with 10% fetal bovine serum (FBS, Omega Scientific, Inc., Tarzana, Calif.), 100 U/mL penicillin, 100 μg/ml streptomycin (Thermo Fisher Scientific) and Normocin (Invivogen). LPS was prepared in assay medium at a concentration of 20 μg/mL. Tested compounds were dissolved in DMSO at 1 mM as a stock solution and were further diluted in the LPS solution to a final concentration of 10 μM. 100 μL of this solution was then transferred to the plated cells to obtain a final concentration of LPS at 10 μg/mL and compound at 5 μM ([…]). The culture supernatants were harvested after a 20 hour incubation period, SEAP activity in the culture supernatants was determined by a colorimetric assay using QuantiBlue (Invivogen). Plate absorbance was read at 630 nm using a Tecan Infinite M200 plate reader (Männedorf, Switzerland). The SEAP concentration was directly proportional to NF-κB activity, which was 2-point normalized to yield activity of compound 1+LPS as 200% and activity for LPS as 100%.
(§3) Measurement of NF-κB Activation Using THP1-Blue NF-κB Cells. THP1-Blue NF-κB cells were plated in 96-well plates at 10^5 cells/well in 100 μL of RPMI supplemented with 10% fetal bovine serum (FBS, Omega Scientific, Inc., Tarzana, Calif.), 100 U/mL penicillin, 100 μg/mL streptomycin (Thermo Fisher Scientific), and Normocin (Invivogen). LPS was prepared in assay medium at a concentration of 20 μg/mL. Tested compounds were dissolved in DMSO at 1 mM as a stock solution and were further diluted in the LPS solution to a final concentration of 10 μM. 100 μL of this solution was then transferred to the plated cells to obtain a final concentration of LPS at 10 μg/mL and compound at 5 μM ([…]). The culture supernatants were harvested after a 20 hours incubation period. SEAP activity in the culture supernatants was determined by a colorimetric assay using QuantiBlue (Invivogen). Plate absorbance was read at 630 nm using a Tecan Infinite M200 plate reader (Mannedorf, Switzerland). The SEAP concentration was directly proportional to NF-κB activity, which was two-point normalized to yield activity of compound 1+LPS as 200% and activity for LPS as 100%.

THP-1 cells = test: Cell viability assay (MTT); settings: compound 5 μM, 18 hours incubation; normalized to DMSO as 100%; mean
Description: THP-1 cells were plated in 96-well plates (10^5 cells/well) in 100 μL RPMI supplemented with 10% FBS, 100 U/mL penicillin and 100 μg/ml streptomycin. Compounds were dissolved in DMSO at 1 mM stock solution and were further diluted to 10 μM in the assay medium. 100 μL of this solution was added to the cells to obtain a final compound concentration of 5 μM ([…]). After 18 hours incubation, a solution of MTT in assay media (0.5 mg/mL) was added to each well and further incubated for 4 to 6 hours, followed by addition of cell lysis buffer (15% w/v SDS and 0.12% v/v 12N HCl aqueous solution), incubated overnight, and then absorbance measured at 570 nm using 650 nm as reference using Tecan Infinite M200 plate reader.
Cell Viability Assay. THP-1 cells were plated in 96-well plates (10^5 cells/well) in 100 μL RPMI supplemented with 10% FBS, 100 U/mL penicillin, and 100 μg/mL streptomycin. Compounds were dissolved in DMSO at 1 mM stock solution and were further diluted to 10 μM in the assay medium. 100 μL of this solution was added to the cells to obtain a final compound concentration of 5 μM ([…]). After 18 h incubation, a solution of MTT in assay media (0.5 mg/mL) was added to each well and further incubated for 4-6 hours, followed by addition of cell lysis buffer (15% w/v SDS and 0.12% v/v 12 N HCl aqueous solution), incubation overnight, and then absorbance was measured at 570 nm using 650 nm as reference using Tecan Infinite M200 plate reader.

NF-κB and ISRE = NF-κB and ISRE reporter assays (primary screens), statements in words for both assays; settings: with LPS or IFN-α as primary stimulus; compared to compound 1
Description: as §2, §1, §3
Measurement of ISRE Activity in ISRE-bla THP-1 Cells. […]

Structure (SMILES)	ISRE % Activation (ISRE)	NF-κB % Activation (NF-κB)	MTT % Viability (THP-1 cells)	activity in NF-κB and ISRE assays (in words) (NF-κB and ISRE)	activity at 5 µM (ISRE)	activity at 5 µM (NF-κB)
CCOc1ccc(S(=O)(=O)N(CCCNC(=O)CCCC[C@H]2SC[C@H]3NC(=O)N[C@H]32)c2cc(OC)c(N=[N+]=[N-])cc2OC)cc1 [Compound 64, N-(3-((N-(4-azido-2,5-dimethoxyphenyl)-4-ethoxyphenyl)sulfonamido)propyl)-5-((3aR,4R,6aS)-2-oxohexahydro-1H-thieno[3,4-d]imidazol-4-yl) pentanamide]	140%	162%	73.8%	relatively weak activity	–	–
COc1cc(NS(=O)(=O)c2ccccc2OC)c(OC)cc1Cl [Compound 24, N-(4-chloro-2,5-dimethoxyphenyl)-2-methoxybenzenesulfonamide]	–	–	92.1%	none of these molecules were active	101%	96%
CCCc1ccc(S(=O)(=O)Nc2cc(OC)c(Cl)cc2OC)cc1 [Compound 16, N-(4-chloro-2,5-dimethoxyphenyl)-4-propylbenzenesulfonamide]	–	–	85.7%	loss of activity	103%	102%
C#CCOCCOCCOCCN(c1cc(OC)c(Cl)cc1OC)S(=O)(=O)c1ccc(OCC)cc1 [Compound 45, N-(4-chloro-2,5-dimethoxyphenyl)-4-ethoxy-N-(2-(2-(2-(prop-2-yn-1-yloxy)ethoxy)ethoxy)ethyl)benzenesulfonamide]	–	–	73.7%	too long to retain activity	130%	107%
CCOc1ccc(S(=O)(=O)N(CCCNC(=O)CCCC[C@H]2SC[C@H]3NC(=O)N[C@H]32)c2cc(OC)c(Cl)cc2OC)cc1 [Compound 58, N-(3-((N-(4-chloro-2,5-dimethoxyphenyl)-4-ethoxyphenyl)sulfonamido)propyl)-5-((3aR,4R,6aS)-2-oxohexahydro-1H-thieno[3,4-d]imidazol-4-yl)pentanamide]	175%	195%	69.6%	equipotent to compound 1	–	–
CCOc1ccc(S(=O)(=O)N(CCCO)c2cc(OC)c(Cl)cc2OC)cc1 [Compound 51, N-(4-chloro-2,5-dimethoxyphenyl)-4-ethoxy-N-(3-hydroxypropyl) benzenesulfonamide]	178%	219%	68.5%	retained activity in both the assays	–	–
CCOc1ccc(S(=O)(=O)Nc2cc(OC)c(Cl)cc2OC)cc1Br [Compound 25, 3-Bromo-N-(4-chloro-2,5-dimethoxyphenyl)-4-ethoxybenzenesulfonamide]	–	–	85.0%	inactive	101%	87%
CCOc1ccc(S(=O)(=O)N(CCCNC(=O)CCCCCNC(=O)c2ccc3c(c2)C(=O)OC32c3ccc(O)cc3Oc3cc(O)ccc32)c2cc(OC)c(Cl)cc2OC)cc1 [Compound 56, N-(6-((3-((N-(4-chloro-2,5-dimethoxyphenyl)-4-ethoxyphenyl)sulfonamido)propyl)amino)-6-oxohexyl)-3′,6′-dihydroxy-3-oxo-3H-spiro[isobenzofuran-1,9′-xanthene]-5-carboxamide]	96%	100%	98.1%	completely inactive	–	–
CNC(=O)c1ccc(S(=O)(=O)Nc2cc(OC)c(Cl)cc2OC)cc1 [Compound 30, 4-(N-(4-chloro-2,5-dimethoxyphenyl)sulfamoyl)-N-methylbenzamide]	–	–	77.0%	completely inactive	105%	103%
COc1cc(NS(=O)(=O)c2ccc(C(N)=O)cc2)c(OC)cc1Cl [Compound 27, 4-(N-(4-chloro-2,5-dimethoxyphenyl)sulfamoyl)benzamide]	–	–	91.0%	lost activity	94%	103%
